Source: paper PMC8162069 (Chemical Science, 2020)

Target: HepG (Trichoderma virens, UniProt G9NDK9)
Experiment: X-ray crystal structure
Type: binding
Settings: active site of each subunit

HepG, sequence (G9NDK9 1-336): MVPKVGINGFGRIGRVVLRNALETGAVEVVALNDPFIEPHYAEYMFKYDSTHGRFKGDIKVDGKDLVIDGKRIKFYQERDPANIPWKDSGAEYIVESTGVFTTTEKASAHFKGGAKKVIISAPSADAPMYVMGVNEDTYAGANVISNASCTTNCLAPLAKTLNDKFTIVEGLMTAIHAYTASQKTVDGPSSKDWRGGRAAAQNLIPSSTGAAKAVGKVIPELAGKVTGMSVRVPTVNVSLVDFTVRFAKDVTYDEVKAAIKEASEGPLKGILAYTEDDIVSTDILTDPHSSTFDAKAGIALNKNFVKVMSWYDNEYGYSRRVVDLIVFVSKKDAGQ

NC(=O)c1ccc[n+]([C@@H]2O[C@H](COP(=O)(O)OP(=O)(O)OC[C@H]3O[C@@H](n4cnc5c(N)ncnc54)[C@H](O)[C@@H]3O)[C@@H](O)[C@H]2O)c1 [NAD^+]
X-ray crystal structure: Each subunit of the tetrameric HepG contains a NAD^+ cofactor
